# Values joined by “and” are separate entries in the source; they are usually repeats but may differ in a detail not shown here. Equal entries are not always repeated.
# Assay: Stability samples of IPA solvate analyzed for IPA content and heat of fusion
# Format: physicochemical
# Description: Differential scanning calorimetry was performed using Perkin Elmer DSC-7 and Diamond DSC, using sealed aluminum pan with a hole in the lid. Sample was heated at a rate of 10° C./min.
# The stability sample obtained at various time points and conditions were analyzed for the IPA level and heat of fusion (Table 6). These two variables were plotted against each other to see the correlation (FIG. 17).
# Sample was stored in a double PE bag with either metal drum or fiber drum as the container.
# [1] = 40° C./75% RH/Fiber drum, double PE bag, 1 month
Compound,"IPA (% w/w) (25° C./60% RH/Metal, 3 months)","ΔH (J/g) heat of fusion (25° C./60% RH/Metal, 3 months) [J/g]","IPA (% w/w) (25° C./60% RH/Metal, 6 months)","ΔH (J/g) heat of fusion (25° C./60% RH/Metal, 6 months) [J/g]","IPA (% w/w) (40° C./75% RH/Metal, 1 month)","ΔH (J/g) heat of fusion (40° C./75% RH/Metal, 1 month)","IPA (% w/w) (40° C./75% RH/Metal, 3 months)","ΔH (J/g) heat of fusion (40° C./75% RH/Metal, 3 months)","IPA (% w/w) (40° C./75% RH/Metal, 6 months)","ΔH (J/g) heat of fusion (40° C./75% RH/Metal, 6 months)","IPA (% w/w) (50° C./Metal, 1 month)","ΔH (J/g) heat of fusion (50° C./Metal, 1 month)",other results
CC(C)O.CS(=O)(=O)c1ccc([C@@H](C[C@H]2CCC(=O)C2)C(=O)Nc2cnccn2)cc1Cl [Lot 1],12,102.665,11.9,101.346,11.1,89.35 J/g,7.3,53.712 J/g and 51.302 J/g and 47.200 J/g,5,32.201 J/g and 29.011 J/g and 26.128 J/g,12,102.033 J/g and 99.554 J/g,"IPA (% w/w) (5° C./Fiber, 6 months): 12.2 % w/w; ΔH (J/g) heat of fusion (5° C./Fiber, 6 months): 104.917 J/g; IPA (% w/w) (25° C./60% RH/Fiber, 3 months): 12 % w/w; ΔH (J/g) heat of fusion (25° C./60% RH/Fiber, 3 months): 99.861 J/g; IPA (% w/w) (25° C./60% RH/Fiber, 6 months): 12 % w/w; ΔH (J/g) heat of fusion (25° C./60% RH/Fiber, 6 months): 98.112 J/g; IPA (% w/w) (30° C./60% RH/Fiber, 10 months): 11.2 % w/w; ΔH (J/g) heat of fusion (30° C./60% RH/Fiber, 10 months): 87.929 J/g; IPA (% w/w) (30° C./60% RH/Metal, 10 months): 11.5 % w/w; ΔH (J/g) heat of fusion (30° C./60% RH/Metal, 10 months): 99.538 J/g; IPA (% w/w) [1]: 8.9 % w/w; ΔH (J/g) heat of fusion [1]: 65.084 J/g; IPA (% w/w) (40° C./75% RH/Fiber, 3 months): 4.4 % w/w; ΔH (J/g) heat of fusion (40° C./75% RH/Fiber, 3 months): 28.733 J/g and 29.404 J/g and 26.416 J/g and 24.713 J/g; IPA (% w/w) (40° C./75% RH/Fiber, 6 months): 4 % w/w; ΔH (J/g) heat of fusion (40° C./75% RH/Fiber, 6 months): 26.529 J/g; IPA (% w/w) (50° C./Fiber, 1 month): 11.8 % w/w; ΔH (J/g) heat of fusion (50° C./Fiber, 1 month): 105.445 J/g"
CC(C)O.CS(=O)(=O)c1ccc([C@@H](C[C@H]2CCC(=O)C2)C(=O)Nc2cnccn2)cc1Cl [Lot 3],12,104.847,12,102.406,11.6,105.006 J/g and 102.972 J/g,11.3,103.326 J/g and 103.52 J/g,8.4,65.867 J/g and 67.851 J/g and 61.796 J/g,12,100.639 J/g,"IPA (% w/w) (5° C./Metal, 3 months): 12.1 % w/w; ΔH (J/g) heat of fusion (5° C./Metal, 3 months): 107.801 J/g; IPA (% w/w) (5° C./Metal, 6 months): 12.1 % w/w; ΔH (J/g) heat of fusion (5° C./Metal, 6 months): 106.157 J/g"
